Laboratory results taken from PubChem BioAssay (NCI).
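At the GI50, growth is halved. TGI: total growth inhibition.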

Legend:
Test in all cases: DTP human tumour cell line panel, 384-well format
786-0 renal = system: 786-0 renal
A498 renal = system: A498 renal
A549 NSCLC = system: A549 NSCLC
ACHN renal = system: ACHN renal
BT-549 breast = system: BT-549 breast
CAKI-1 renal = system: CAKI-1 renal
CCRF-CEM leukemia = system: CCRF-CEM leukemia
COLO 205 colon = system: COLO 205 colon
DU-145 prostate = system: DU-145 prostate
EKVX NSCLC = system: EKVX NSCLC
HCC-2998 colon = system: HCC-2998 colon
HCT-116 colon = system: HCT-116 colon
HCT-15 colon = system: HCT-15 colon
HL-60(TB) leukemia = system: HL-60(TB) leukemia
HOP-62 NSCLC = system: HOP-62 NSCLC
HOP-92 NSCLC = system: HOP-92 NSCLC
HS 578T breast = system: HS 578T breast
HT29 colon = system: HT29 colon
IGROV1 ovarian = system: IGROV1 ovarian
K-562 leukemia = system: K-562 leukemia
KM12 colon = system: KM12 colon
LOX IMVI melanoma = system: LOX IMVI melanoma
M14 melanoma = system: M14 melanoma
MALME-3M melanoma = system: MALME-3M melanoma
MCF7 breast = system: MCF7 breast
MDA-MB-231 breast = system: MDA-MB-231 breast
MDA-MB-435 melanoma = system: MDA-MB-435 melanoma
MDA-MB-468 breast = system: MDA-MB-468 breast
MOLT-4 leukemia = system: MOLT-4 leukemia
NCI-H226 lung = system: NCI-H226 lung
NCI-H23 lung = system: NCI-H23 lung
NCI-H322M lung = system: NCI-H322M lung
NCI-H460 NSCLC = system: NCI-H460 NSCLC
NCI-H522 lung = system: NCI-H522 lung
NCI/ADR-RES ovarian = system: NCI/ADR-RES ovarian
OVCAR-3 ovarian = system: OVCAR-3 ovarian
OVCAR-4 ovarian = system: OVCAR-4 ovarian
OVCAR-5 ovarian = system: OVCAR-5 ovarian
OVCAR-8 ovarian = system: OVCAR-8 ovarian
PC-3 prostate = system: PC-3 prostate
RPMI-8226 leukemia = system: RPMI-8226 leukemia
RXF 393 renal = system: RXF 393 renal
SF-268 CNS = system: SF-268 CNS
SF-295 CNS = system: SF-295 CNS
SF-539 CNS = system: SF-539 CNS
SK-MEL-2 melanoma = system: SK-MEL-2 melanoma
SK-MEL-28 melanoma = system: SK-MEL-28 melanoma
SK-MEL-5 melanoma = system: SK-MEL-5 melanoma
SK-OV-3 ovarian = system: SK-OV-3 ovarian
SN12C renal = system: SN12C renal
SNB-19 CNS = system: SNB-19 CNS
SNB-75 CNS = system: SNB-75 CNS
SW-620 colon = system: SW-620 colon
T-47D breast = system: T-47D breast
TK-10 renal = system: TK-10 renal
U251 glioblastoma = system: U251 glioblastoma
UACC-257 melanoma = system: UACC-257 melanoma
UACC-62 melanoma = system: UACC-62 melanoma
UO-31 renal = system: UO-31 renal

## CC(C)NC[C@@H](C(=O)N1CCN(c2ncnc3c2[C@H](C)C[C@H]3O)CC1)c1ccc(Cl)cc1
786-0 renal
  GI50: 1.49 µM
  TGI: 21 µM
A498 renal
  GI50: 0.589 µM
  TGI: 11.3 µM
A549 NSCLC
  GI50: 18.2 µM
  TGI: > 100 µM
ACHN renal
  GI50: 25.1 µM
  TGI: > 100 µM
BT-549 breast
  GI50: 0.636 µM
  TGI: 11.8 µM
CAKI-1 renal
  GI50: 11.7 µM
  TGI: 75.5 µM
CCRF-CEM leukemia
  GI50: 0.854 µM
  TGI: 12 µM
COLO 205 colon
  GI50: 4.88 µM
  TGI: 24.5 µM
DU-145 prostate
  GI50: 25.8 µM
  TGI: > 100 µM
EKVX NSCLC
  GI50: 10.6 µM
  TGI: 52.4 µM
HCC-2998 colon
  GI50: 3.41 µM
  TGI: 24.1 µM
HCT-116 colon
  GI50: 18.2 µM
  TGI: 96.8 µM
HCT-15 colon
  GI50: 26.2 µM
  TGI: > 100 µM
HL-60(TB) leukemia
  GI50: 17.3 µM
  TGI: 31.2 µM
HOP-62 NSCLC
  GI50: 34.1 µM
  TGI: > 100 µM
HOP-92 NSCLC
  GI50: 11.7 µM
  TGI: 46.1 µM
HS 578T breast
  GI50: 0.771 µM
  TGI: 14.6 µM
HT29 colon
  GI50: 15.1 µM
  TGI: 52.5 µM
IGROV1 ovarian
  GI50: 0.235 µM
  TGI: 2.69 µM
K-562 leukemia
  GI50: 25.4 µM
  TGI: > 100 µM
KM12 colon
  GI50: 1.45 µM
  TGI: 18.8 µM
LOX IMVI melanoma
  GI50: 34.5 µM
  TGI: > 100 µM
M14 melanoma
  GI50: 14.4 µM
  TGI: 34 µM
MALME-3M melanoma
  GI50: 7.94 µM
  TGI: 21.6 µM
MCF7 breast
  GI50: 0.919 µM
  TGI: 15.5 µM
MDA-MB-231 breast
  GI50: 44.9 µM
  TGI: > 100 µM
MDA-MB-435 melanoma
  GI50: 23.9 µM
  TGI: > 100 µM
MDA-MB-468 breast
  GI50: 0.494 µM
  TGI: 4.16 µM
MOLT-4 leukemia
  GI50: 0.259 µM
  TGI: 1.77 µM
NCI-H226 lung
  GI50: 21.2 µM
  TGI: > 100 µM
NCI-H23 lung
  GI50: 16.2 µM
  TGI: 57.1 µM
NCI-H322M lung
  GI50: 18.4 µM
  TGI: > 100 µM
NCI-H460 NSCLC
  GI50: 1.31 µM
  TGI: > 100 µM
NCI-H522 lung
  GI50: 17 µM
  TGI: 49.3 µM
NCI/ADR-RES ovarian
  GI50: > 100 µM
  TGI: > 100 µM
OVCAR-3 ovarian
  GI50: 10.5 µM
  TGI: 64.5 µM
OVCAR-4 ovarian
  GI50: 76.8 µM
  TGI: > 100 µM
OVCAR-5 ovarian
  GI50: 18.4 µM
  TGI: > 100 µM
OVCAR-8 ovarian
  GI50: 45.9 µM
  TGI: > 100 µM
PC-3 prostate
  GI50: 1.07 µM
  TGI: 35.4 µM
RPMI-8226 leukemia
  GI50: 10.5 µM
  TGI: 23.9 µM
RXF 393 renal
  GI50: 0.3 µM
  TGI: 4.41 µM
SF-268 CNS
  GI50: 29.6 µM
  TGI: > 100 µM
SF-295 CNS
  GI50: 2.19 µM
  TGI: 32.7 µM
SF-539 CNS
  GI50: 0.587 µM
  TGI: 22.5 µM
SK-MEL-2 melanoma
  GI50: 11.2 µM
  TGI: 24.5 µM
SK-MEL-28 melanoma
  GI50: 11.4 µM
  TGI: 41.7 µM
SK-MEL-5 melanoma
  GI50: 12 µM
  TGI: 25.2 µM
SK-OV-3 ovarian
  GI50: 0.912 µM
  TGI: 23.6 µM
SN12C renal
  GI50: 23.8 µM
  TGI: > 100 µM
SNB-19 CNS
  GI50: 7.47 µM
  TGI: > 100 µM
SNB-75 CNS
  GI50: 0.676 µM
  TGI: 15.3 µM
SW-620 colon
  GI50: 49.9 µM
  TGI: > 100 µM
T-47D breast
  GI50: 0.119 µM
  TGI: 0.857 µM
TK-10 renal
  GI50: 5.49 µM
  TGI: 36.9 µM
U251 glioblastoma
  GI50: 10.2 µM
  TGI: > 100 µM
UACC-257 melanoma
  GI50: 14 µM
  TGI: 27.1 µM
UACC-62 melanoma
  GI50: 10.9 µM
  TGI: 30.4 µM
UO-31 renal
  GI50: 35 µM
  TGI: > 100 µM
